In ChEMBL document CHEMBL1201862, “PubChem BioAssay data set” (2004):
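Dose response: 5 concentrations. Exposure: 48 h. Format: 96-well plates. Endpoint: linear interpolation; highest concentration if not reached. GI50 is the concentration that inhibits growth by half.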 Active and inactive are the calls of the source. Rule as the data show it: active = GI50 up to about 1.1 µM and inactive = higher.

Legend:
Assay in all cases: NCI-60 cell line screen, 48 h
SK-MEL-28 = test system: SK-MEL-28
Malme-3M = test system: Malme-3M
HT-29 = test system: HT-29
SR = test system: SR
SW-620 = test system: SW-620
MDA-MB-435 = test system: MDA-MB-435
SNB-19 = test system: SNB-19
A549 = test system: A549
HCC 2998 = test system: HCC 2998
UACC-62 = test system: UACC-62
Hs-578T = test system: Hs-578T
HOP-92 = test system: HOP-92
OVCAR-4 = test system: OVCAR-4
PC-3 = test system: PC-3
EKVX = test system: EKVX
HOP-62 = test system: HOP-62
UO-31 = test system: UO-31
LOX IMVI = test system: LOX IMVI
KM12 = test system: KM12
SK-MEL-2 = test system: SK-MEL-2
RXF 393 = test system: RXF 393
SK-MEL-5 = test system: SK-MEL-5
CAKI-1 = test system: CAKI-1
DU-145 = test system: DU-145
NCI-H23 = test system: NCI-H23
OVCAR-5 = test system: OVCAR-5
M14 = test system: M14
SK-OV-3 = test system: SK-OV-3
OVCAR-3 = test system: OVCAR-3
SN12C = test system: SN12C
IGROV-1 = test system: IGROV-1
K562 = test system: K562
MOLT-4 = test system: MOLT-4
HCT-116 = test system: HCT-116
CCRF-CEM = test system: CCRF-CEM
SF-268 = test system: SF-268
SF-295 = test system: SF-295
OVCAR-8 = test system: OVCAR-8
HL-60 = test system: HL-60
T47D = test system: T47D
NCI-H460 = test system: NCI-H460
TK-10 = test system: TK-10
COLO 205 = test system: COLO 205
SF-539 = test system: SF-539
HCT-15 = test system: HCT-15
NCI-H522 = test system: NCI-H522
ACHN = test system: ACHN
786-0 = test system: 786-0
BT-549 = test system: BT-549
SNB-75 = test system: SNB-75
MDA-MB-231 = test system: MDA-MB-231
NCI/ADR-RES = test system: NCI/ADR-RES
U-251 = test system: U-251
MCF7 = test system: MCF7
NCI-H226 = test system: NCI-H226
UACC-257 = test system: UACC-257
MDA-N = test system: MDA-N
RPMI-8226 = test system: RPMI-8226
A498 = test system: A498

Measured: GI50

Nc1ccccc1N/C(=C\C(=O)C(Cl)(Cl)Cl)c1ccccc1
25.4 µM: HCT-15
inactive: SK-MEL-28 35.5 µM | Malme-3M 16.8 µM | HT-29 27.4 µM | SR 28.2 µM | SW-620 28.8 µM | MDA-MB-435 30.9 µM | SNB-19 36.9 µM | A549 28.8 µM | HCC 2998 17.3 µM | UACC-62 17.5 µM | Hs-578T 29.6 µM | HOP-92 14.5 µM | OVCAR-4 29.2 µM | PC-3 22.5 µM | EKVX 15.2 µM | HOP-62 23.6 µM | UO-31 17.2 µM | LOX IMVI 19.5 µM | KM12 33.6 µM | SK-MEL-2 14.1 µM | RXF 393 19.1 µM | SK-MEL-5 15 µM | CAKI-1 34.5 µM | DU-145 38.8 µM | NCI-H23 30.3 µM | OVCAR-5 15.7 µM | M14 20.1 µM | SK-OV-3 88.5 µM | OVCAR-3 22.5 µM | SN12C 20.1 µM | IGROV-1 5.6 µM | K562 30.2 µM | MOLT-4 23.3 µM | HCT-116 16.1 µM | CCRF-CEM 30.2 µM | SF-268 24.3 µM | SF-295 36.6 µM | OVCAR-8 30.5 µM | HL-60 20.5 µM | T47D 20.7 µM | NCI-H460 25.9 µM | TK-10 65 µM | COLO 205 27.9 µM | SF-539 18.8 µM | NCI-H522 15.3 µM | ACHN 24.1 µM | 786-0 20.4 µM | BT-549 25.7 µM | SNB-75 37.8 µM | MDA-MB-231 15.2 µM | NCI/ADR-RES 29.2 µM | U-251 16.8 µM | MCF7 23.7 µM | NCI-H226 24.2 µM | UACC-257 23.9 µM | MDA-N 18.1 µM | RPMI-8226 23.1 µM

NC(Cc1ccccc1)C(=O)O (stereo not drawn) [DL-PHENYLALANINE]
inactive: SK-MEL-28 > 100 µM | Malme-3M > 100 µM | HT-29 > 100 µM | SW-620 > 100 µM | MDA-MB-435 > 100 µM | SNB-19 > 100 µM | A549 > 100 µM | HCC 2998 > 100 µM | UACC-62 > 100 µM | Hs-578T > 100 µM | HOP-92 > 100 µM | OVCAR-4 > 100 µM | PC-3 > 100 µM | EKVX > 100 µM | HOP-62 > 100 µM | UO-31 > 100 µM | LOX IMVI > 100 µM | KM12 > 100 µM | SK-MEL-2 > 100 µM | RXF 393 > 100 µM | SK-MEL-5 > 100 µM | CAKI-1 > 100 µM | DU-145 > 100 µM | NCI-H23 > 100 µM | OVCAR-5 > 100 µM | M14 > 100 µM | SK-OV-3 > 100 µM | OVCAR-3 > 100 µM | SN12C > 100 µM | IGROV-1 > 100 µM | K562 > 100 µM | MOLT-4 > 100 µM | HCT-116 > 100 µM | CCRF-CEM > 100 µM | SF-268 > 100 µM | SF-295 > 100 µM | OVCAR-8 > 100 µM | HL-60 > 100 µM | T47D > 100 µM | NCI-H460 > 100 µM | TK-10 > 100 µM | COLO 205 > 100 µM | SF-539 > 100 µM | NCI-H522 > 100 µM | ACHN > 100 µM | 786-0 > 100 µM | BT-549 > 100 µM | SNB-75 > 100 µM | MDA-MB-231 > 100 µM | NCI/ADR-RES > 100 µM | U-251 > 100 µM | MCF7 > 100 µM | NCI-H226 > 100 µM | UACC-257 > 100 µM | MDA-N > 100 µM | A498 > 100 µM | RPMI-8226 > 100 µM
> 100 µM: HCT-15

N#Cc1cccc(Nc2ccccc2SSc2ccccc2Nc2cccc(C#N)c2)c1
10.4 µM: HCT-15
inactive: SK-MEL-28 13.3 µM | Malme-3M 11 µM | HT-29 11.4 µM | SW-620 3.48 µM | MDA-MB-435 8.69 µM | SNB-19 7.76 µM | A549 11.3 µM | HCC 2998 16.6 µM | UACC-62 7.1 µM | Hs-578T 6.97 µM | HOP-92 7.89 µM | OVCAR-4 10.7 µM | PC-3 4.82 µM | EKVX 13.9 µM | HOP-62 11.9 µM | UO-31 4.97 µM | LOX IMVI 2.73 µM | KM12 9.46 µM | SK-MEL-2 > 10 µM | RXF 393 > 10 µM | SK-MEL-5 9.04 µM | CAKI-1 9.02 µM | DU-145 19 µM | NCI-H23 11.7 µM | OVCAR-5 17.5 µM | M14 7.55 µM | SK-OV-3 13.5 µM | OVCAR-3 9.12 µM | SN12C 7.59 µM | IGROV-1 8.65 µM | K562 5.12 µM | MOLT-4 3.13 µM | HCT-116 9.06 µM | CCRF-CEM 2.94 µM | SF-268 4.93 µM | SF-295 13.2 µM | OVCAR-8 8.11 µM | HL-60 4.76 µM | T47D 12.3 µM | NCI-H460 7.71 µM | TK-10 19.3 µM | COLO 205 > 10 µM | SF-539 8.79 µM | NCI-H522 8.11 µM | ACHN 8.73 µM | 786-0 3.91 µM | BT-549 > 10 µM | SNB-75 8.59 µM | MDA-MB-231 12.2 µM | NCI/ADR-RES 8.79 µM | U-251 5.92 µM | MCF7 7.52 µM | NCI-H226 10.3 µM | UACC-257 13.6 µM | MDA-N 9.23 µM | A498 9.89 µM | RPMI-8226 3.93 µM
